Experimental data: patent publication US20040156869A1, “2-substituted quinazolin-4-ylamine analogues” (Neurogen Corporation, priority 2002, published 2004)

The compounds below were run against human capsaicin receptor (VR1) (Homo sapiens, UniProt Q8NER1) (assay: Capsaicin receptor binding assay ([3H]RTX competition, VR1-transfected HEK293 membranes)).
Sequence of human capsaicin receptor (VR1) (Q8NER1 whole entry): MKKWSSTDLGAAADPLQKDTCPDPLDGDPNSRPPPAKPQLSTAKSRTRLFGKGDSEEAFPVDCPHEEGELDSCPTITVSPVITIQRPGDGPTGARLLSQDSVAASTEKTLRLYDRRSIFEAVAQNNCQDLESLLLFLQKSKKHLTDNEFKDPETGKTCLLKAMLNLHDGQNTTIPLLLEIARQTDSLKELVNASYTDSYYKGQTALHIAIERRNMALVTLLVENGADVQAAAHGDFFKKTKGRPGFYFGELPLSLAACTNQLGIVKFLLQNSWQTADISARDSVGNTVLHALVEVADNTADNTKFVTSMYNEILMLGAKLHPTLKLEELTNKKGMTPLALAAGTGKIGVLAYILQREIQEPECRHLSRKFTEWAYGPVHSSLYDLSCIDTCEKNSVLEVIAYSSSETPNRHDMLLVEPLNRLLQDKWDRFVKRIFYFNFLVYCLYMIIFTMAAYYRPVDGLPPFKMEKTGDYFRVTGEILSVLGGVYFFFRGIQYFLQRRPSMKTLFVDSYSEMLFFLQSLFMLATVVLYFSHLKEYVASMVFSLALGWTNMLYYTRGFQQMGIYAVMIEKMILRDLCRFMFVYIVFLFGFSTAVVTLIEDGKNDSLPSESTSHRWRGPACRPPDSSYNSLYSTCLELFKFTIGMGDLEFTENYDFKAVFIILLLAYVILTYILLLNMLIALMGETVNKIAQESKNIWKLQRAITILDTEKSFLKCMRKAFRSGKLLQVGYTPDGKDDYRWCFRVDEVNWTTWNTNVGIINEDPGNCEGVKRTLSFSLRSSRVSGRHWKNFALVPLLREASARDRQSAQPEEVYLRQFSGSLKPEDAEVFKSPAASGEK

Question: Which Ki does the source give for `C[C@@H]1CN(Cc2nc(Nc3ccc(C(C)(C)C)nc3)c3ncc(-c4ncccc4Cl)cc3n2)C[C@H](C)O1` [Compound 632, (6-tert-Butyl-pyridin-3-yl)-[7-(3-chloro-pyridin-2-yl)-2-(2,6-dimethyl-morpholin-4-ylmethyl)-pyrido[3,2-d]pyrimidin-4-yl]-amine (cis)] here?
Answer: Its Ki is < 1 µM.

Question: How did the Ki turn out when `CC1CCCN(Cc2nc(Nc3ccc(C(F)(F)F)nc3)c3ccc(-c4ncccc4C(F)(F)F)cc3n2)C1` (stereo not shown) [Compound 485, [2-(3-Methyl-piperidin-1-ylmethyl)-7-(3-trifluoromethyl-pyridin-2-yl)-quinazolin-4-yl]-(6-trifluoromethyl-pyridin-3-yl)-amine] was run?
Answer: Its Ki is < 1 µM.

Question: For `CC(C)COCc1cc(Nc2ccc(C(F)(F)F)cn2)c2ccc(-c3ncccc3C(F)(F)F)nc2n1` [Compound 314, [2-Isobutoxymethyl-7-(3-trifluoromethyl-pyridin-2-yl)-[1,8]naphthyridin-4-yl]-(5-trifluoromethyl-pyridin-2-yl)-amine], which Ki is on record?
Answer: Its Ki is < 1 µM.

Question: `CC(C)N(C)CCc1nc(Nc2ccc(C(F)(F)F)cc2)c2ccc(-c3ncccc3C(F)(F)F)cc2n1` [Compound 421, [2-[(Isopropyl-methyl-amino)-ethyl]-7-(3-trifluoromethyl-pyridin-2-yl)-quinazolin-4-yl]-(4-trifluoromethyl-phenyl)-amine] was tested. Which Ki did it give?
Answer: Its Ki is < 1 µM.

Question: How did the Ki turn out when `CN(Cc1nc(Nc2ccc(C(F)(F)F)cc2)c2ccc(-c3ncccc3C(F)(F)F)cc2n1)C1CCc2ccccc21` (stereo not shown) [Compound 324, [2-[(Indan-1-yl-methyl-amino)-methyl]-7-(3-trifluoromethyl-pyridin-2-yl)-quinazolin-4-yl]-(4-trifluoromethyl-phenyl)-amine] was run?
Answer: Its Ki is < 1 µM.

Question: `O=C(O)CCCNC(=O)c1nc(Nc2ccc(C(F)(F)F)cc2)c2ccc(-c3ncccc3C(F)(F)F)nc2n1` [Compound 766, 4-{[4-(4-Trifluoromethyl-phenylamino)-7-(3-trifluoromethyl-pyridin-2-yl)-pyrido[2,3-d]pyrimidine-2-carbonyl]-amino}-butyric acid] was tested. Which Ki did it give?
Answer: Its Ki is < 1 µM.

Question: `CCN1CCC(c2nc(Nc3ccc(C(F)(F)F)cc3)c3ccc(-c4ncccc4C(F)(F)F)cc3n2)CC1` [Compound 689, [2-(1-Ethyl-piperidin-4-yl)-7-(3-trifluoromethyl-pyridin-2-yl)-quinazolin-4-yl]-(4-trifluoromethyl-phenyl)-amine] was tested. Which Ki did it give?
Answer: The Ki was < 1 µM.

Question: With `C[C@@H]1C[C@H](C)CN(Cc2nc(Nc3ccc(C(F)(F)F)cc3)c3ncc(-c4ncccc4C(F)(F)F)cc3n2)C1` [Compound 668, [2-(3,5-Dimethyl-piperidin-1-ylmethyl)-7-(3-trifluoromethyl-pyridin-2-yl)-pyrido[3,2-d]pyrimidin-4-yl]-(4-trifluoromethyl-phenyl)-amine (cis)] as the compound, how does the Ki read?
Answer: The Ki was < 1 µM.

Question: Which Ki does the source give for `CC(C)COCc1cc(Nc2ccc(C(F)(F)F)cc2)c2ccc(-c3ncccc3C(F)(F)F)nc2n1` [Compound 301, [2-Isobutoxymethyl-7-(3-trifluoromethyl-pyridin-2-yl)-[1,8]naphthyridin-4-yl]-(4-trifluoromethyl-phenyl)-amine] here?
Answer: Its Ki is < 1 µM.

Question: Which Ki does the source give for `Cc1cccnc1-c1ccc2c(Nc3ccc(C(C)C)cc3)nc(CN3CCSCC3)nc2c1` [Compound 713, (4-Isopropyl-phenyl)-[7-(3-methyl-pyridin-2-yl)-2-thiomorpholin-4-ylmethyl-quinazolin-4-yl]-amine] here?
Answer: The Ki was < 1 µM.

Question: How did the Ki turn out when `CC1CN(Cc2nc(Nc3ccc(S(=O)(=O)C(F)(F)F)cc3)c3ccc(-c4ncccc4C(F)(F)F)cc3n2)CC(C)O1` (stereo not shown) [Compound 581, [2-(2,6-Dimethyl-morpholin-4-ylmethyl)-7-(3-trifluoromethyl-pyridin-2-yl)-quinazolin-4-yl]-(4-trifluoromethanesulfonyl-phenyl)-amine] was run?
Answer: The Ki was < 1 µM.

Question: With `CC(C)COCc1nc(Nc2ccc(S(=O)(=O)C(F)(F)F)cc2)c2ccc(-c3ncccc3C(F)(F)F)nc2n1` [Compound 168, [2-Isobutoxymethyl-7-(3-trifluoromethyl-pyridin-2-yl)-pyrido[2,3-d]pyrimidin-4-yl]-(4-trifluoromethanesulfonyl-phenyl)-amine] as the compound, how does the Ki read?
Answer: The Ki was < 1 µM.

Question: With `CCCN(CC)Cc1nc(Nc2ccc(S(=O)(=O)N3CCOCC3)cc2)c2ccc(-c3ncccc3C(F)(F)F)cc2n1` [Compound 724, [2-[(Ethyl-propyl-amino)-methyl]-7-(3-trifluoromethyl-pyridin-2-yl)-quinazolin-4-yl]-[4-(morpholine-4-sulfonyl)-phenyl]-amine] as the compound, how does the Ki read?
Answer: Its Ki is < 1 µM.

Question: Which Ki does the source give for `CC(C)COCc1nc(Nc2ccc(C(C)(C)C#N)cc2)c2ccc(-c3ncccc3C(F)(F)F)nc2n1` [Compound 167, 2-{4-[2-Isobutoxymethyl-7-(3-trifluoromethyl-pyridin-2-yl)-pyrido[2,3-d]pyrimidin-4-ylamino]-phenyl}-2-methyl-propionitrile] here?
Answer: Its Ki is < 1 µM.

Question: Which Ki does the source give for `CN(C)CCN1CCN(Cc2nc(Nc3ccc(C(F)(F)F)cc3)c3ccc(-c4ncccc4C(F)(F)F)cc3n2)CC1` [Compound 515, [2-[4-(2-Dimethylamino-ethyl)-piperazin-1-ylmethyl]-7-(3-trifluoromethyl-pyridin-2-yl)-quinazolin-4-yl]-(4-trifluoromethyl-phenyl)-amine] here?
Answer: Its Ki is < 1 µM.

Question: For `COCc1cc(Nc2ccc(C(F)(F)F)cn2)c2ccc(-c3ncccc3C(F)(F)F)nc2n1` [Compound 307, [2-Methoxymethyl-7-(3-trifluoromethyl-pyridin-2-yl)-[1,8]naphthyridin-4-yl]-(5-trifluoromethyl-pyridin-2-yl)-amine], which Ki is on record?
Answer: The Ki was < 1 µM.

Question: With `COc1ccc(Nc2nc(COCC(C)C)nc3nc(-c4ncccc4C(F)(F)F)ccc23)cc1C(F)(F)F` [Compound 256, [2-Isobutoxymethyl-7-(3-trifluoromethyl-pyridin-2-yl)-pyrido[2,3-d]pyrimidin-4-yl]-(4-methoxy-3-trifluoromethyl-phenyl)-amine] as the compound, how does the Ki read?
Answer: Its Ki is < 1 µM.

Question: `CC1CCN(Cc2nc(Nc3ccc(C(F)(F)F)nc3)c3ccc(-c4ncccc4C(F)(F)F)cc3n2)CC1` [Compound 360, [2-(4-Methyl-piperidin-1-ylmethyl)-7-(3-trifluoromethyl-pyridin-2-yl)-quinazolin-4-yl]-(6-trifluoromethyl-pyridin-3-yl)-amine] was tested. Which Ki did it give?
Answer: The Ki was < 1 µM.

Question: Which Ki does the source give for `CCCCN(C)CCc1nc(Nc2ccc(C(F)(F)F)cc2)c2ccc(-c3ncccc3C(F)(F)F)cc2n1` [Compound 413, [2-[(Butyl-methyl-amino)-ethyl]-7-(3-trifluoromethyl-pyridin-2-yl)-quinazolin-4-yl]-(4-trifluoromethyl-phenyl)-amine] here?
Answer: Its Ki is < 1 µM.

Question: `FC(F)(F)c1ccc(Nc2nc(CN3C=NCCC3)nc3cc(-c4ncccc4C(F)(F)F)ccc23)cc1` [Compound 671, [2-(5,6-Dihydro-4H-pyrimidin-1-ylmethyl)-7-(3-trifluoromethyl-pyridin-2-yl)-quinazolin-4-yl]-(4-trifluoromethyl-phenyl)-amine] was tested. Which Ki did it give?
Answer: Its Ki is < 1 µM.

Question: Which Ki does the source give for `FC(F)(F)c1ccc(Nc2nc(COCc3ccccc3)nc3cc(-c4ncccc4C(F)(F)F)ccc23)nc1` [Compound 26, [2-Benzyloxymethyl-7-(3-trifluoromethyl-pyridin-2-yl)-quinazolin-4-yl]-(5-trifluoromethyl-pyridin-2-yl)-amine] here?
Answer: The Ki was < 1 µM.

Question: Which Ki does the source give for `CN(C(C)(C)C)S(=O)(=O)c1ccc(Nc2nc(CO)nc3cc(-c4ncccc4C(F)(F)F)cnc23)cc1` [Compound 203, N-tert-Butyl-4-[2-hydroxymethyl-7-(3-trifluoromethyl-pyridin-2-yl)-pyrido[3,2-d]pyrimidin-4-ylamino]-N-methyl-benzenesulfonamide] here?
Answer: Its Ki is < 1 µM.
